Measured values taken from patent US10683294B2, “5-5 fused rings as C5a inhibitors” (CHEMOCENTRYX, INC., priority 2017, dated 2020).

Target: C5aR (Homo sapiens (Human), UniProt P21730)
Test: Chemotaxis assay (inhibition of C5aR mediated migration towards C5a)
Format: cell-based
Details: inhibition in the chemotaxis assay (Example 14 B.3); U937 or neutrophil cells, 0.03 nM C5a
Description: U937 cells are a monocytic cell line which express C5aR, and are available from ATCC (VA). These cells were cultured as a suspension in RPMI-1640 medium supplemented with 2 mM L-glutamine, 1.5 g/L sodium bicarbonate, 4.5 g/L glucose, 10 mM HEPES, 1 mM sodium pyruvate, and 10% FBS. Cells were grown under 5% CO2/95% air, 100% humidity at 37° C. and subcultured twice weekly at 1:6 (cells were cultured at a density range of 1×10^5 to 2×10^6 cells/mL) and harvested at 1×10^6 cells/mL. Prior to assay, cells are treated overnight with 0.5 mM of cyclic AMP (Sigma, Ohio) and washed once prior to use. cAMP treated U937 cells can be used in C5aR ligand binding and functional assays.
Optionally, human or murine neutrophils can be used to assay for compound activity. Neutrophils may be isolated from fresh human blood using density separation and centrifigation. Briefly, whole blood is incubated with equal parts 3% dextran and allowed to separate for 45 minutes. After separation, the top layer is layered on top of 15 mls of Ficoll (15 mls of Ficoll for every 30 mls of blood suspension) and centrifuged for 30 minutes at 400×g with no brake. The pellet at the bottom of the tube is then isolated and resuspended into PharmLyse RBC Lysis Buffer (BD Biosciences, San Jose, Calif.) after which the sample is again centrifuged for 10 minutes at 400×g with brake. The remaining cell pellet is resuspended as appropriate and consists of isolated neutrophils.
Optionally, compounds may be further assayed for their ability to inhibit chemotaxis in cells. Chemotaxis assays are performed using 5 μm pore polycarbonate, polyvinylpyrrolidone-coated filters in 96-well chemotaxis chambers (Neuroprobe; Gaithersburg, Md.) using chemotaxis buffer (Hank's balanced salt solution (HBSS) and 1% FBS). C5aR ligands (i.e., C5a, R&D Systems; Minneapolis, Minn.) are use to evaluate compound mediated inhibition of C5aR mediated migration. Other chemokines (i.e., SDF-1α; R&D Systems; Minneapolis, Minn.) are used as specificity controls. The lower chamber is loaded with 29 μl of chemokine (i.e., 0.03 nM C5a) and varying amounts of compound; the top chamber contains 100,000 U937 or neutrophil cells in 20 μl. The chambers are incubated 1.5 hours at 37° C., and the number of cells in the lower chamber quantified either by direct cell counts in five high powered fields per well or by the CyQuant assay (Molecular Probes), a fluorescent dye method that measures nucleic acid content and microscopic observation.

Sequence of C5aR (P21730 whole entry): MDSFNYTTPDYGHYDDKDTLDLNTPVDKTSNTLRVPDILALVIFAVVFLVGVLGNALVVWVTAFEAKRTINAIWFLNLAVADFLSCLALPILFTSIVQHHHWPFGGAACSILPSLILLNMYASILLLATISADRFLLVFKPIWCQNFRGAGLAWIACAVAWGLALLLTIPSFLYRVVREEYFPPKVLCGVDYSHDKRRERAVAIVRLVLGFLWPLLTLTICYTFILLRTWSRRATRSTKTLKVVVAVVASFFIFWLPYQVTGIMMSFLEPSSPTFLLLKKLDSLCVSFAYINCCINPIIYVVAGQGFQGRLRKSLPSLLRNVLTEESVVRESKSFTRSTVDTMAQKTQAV

| IC50 [nM] | SMILES |
| --- | --- |
| 5 to 50 | CCc1cccc(CC)c1-n1nc2c(c1-c1cccc3[nH]cc(Cl)c13)CN(Cc1ccc(C(F)(F)F)cc1C(F)(F)F)C2(C)C [Compound 1.034] |
| < 5 | CCc1cccc(CC)c1-n1nc2c(c1-c1ccc(Cl)c3[nH]ccc13)CN(Cc1ccc(C(F)(F)F)cc1C(F)(F)F)C2(C)C [Compound 1.024] |
| 50 to 500 | CCc1cccc(CC)c1-n1nc2c(c1-c1cccc3[nH]ccc13)CN(C(=O)COc1ccccc1)C2(C)C [Compound 1.041] |
| 5 to 50 | CCc1cccc(CC)c1-n1nc2c(c1-c1ccc(F)c3[nH]ccc13)CN(Cc1ccc(Cl)cc1Cl)C2(C)C [Compound 1.020] |
| ≥ 500 | Cc1cccc(C)c1-n1nc2c(c1-c1ccc3[nH]ccc3c1)CN(S(=O)(=O)c1ccc(C(C)(C)C)cc1)C2 [Compound 1.063] |
| ≥ 500 | Cc1cccc(C)c1-n1nc2c(c1-c1ccc3[nH]ccc3c1)CN(C(=O)c1ccccc1)C2 [Compound 1.066] |
| 5 to 50 | CCc1cccc(CC)c1-n1nc2c(c1-c1ccc(F)c3[nH]ccc13)CN(C(=O)CC(C)C)C2(C)C [Compound 1.030] |
| ≥ 500 | Cc1cccc(C)c1-n1nc2c(c1-c1ccc3[nH]ccc3c1)CN(C(=O)OC(C)(C)C)C2=O [Compound 1.055] |
| 5 to 50 | CCc1cccc(CC)c1-n1nc2c(c1-c1ccc3[nH]ccc3c1)CN(Cc1ccccc1C(F)(F)F)C2(C)C [Compound 1.047] |
| 5 to 50 | CCc1cccc(CC)c1-n1nc2c(c1-c1cccc3[nH]cc(C#N)c13)CN(Cc1ccc(C(F)(F)F)cc1C(F)(F)F)C2(C)C [Compound 1.036] |
| 5 to 50 | CCc1cccc(CC)c1-n1nc2c(c1-c1ccc(F)c3[nH]ccc13)CN(Cc1ccccn1)C2(C)C [Compound 1.019] |
| < 5 | CCc1cccc(CC)c1-n1nc2c(c1-c1ccc(F)c3[nH]ccc13)CN(Cc1ccccc1)C2(C)C [Compound 1.021] |
| 5 to 50 | CCc1cccc(CC)c1-n1nc2c(c1-c1cccc3[nH]ccc13)CN(Cc1ccc(C(F)(F)F)cc1C(F)(F)F)C2(C)C [Compound 1.045] |
| 50 to 500 | CCc1cccc(CC)c1-n1nc2c(c1-c1ccc(F)c3[nH]ccc13)CN(C(=O)c1ccccn1)C2(C)C [Compound 1.028] |
| 5 to 50 | CCc1cccc(CC)c1-n1nc2c(c1-c1cccc3[nH]ccc13)CN(Cc1cc(C(F)(F)F)ccc1C(F)(F)F)C2(C)C [Compound 1.038] |
| 50 to 500 | CCc1cccc(CC)c1-n1nc2c(c1-c1ccc(F)c3[nH]ccc13)CN(Cc1ncco1)C2(C)C [Compound 1.008] |
| ≥ 500 | Cc1cccc(C)c1-n1nc2c(c1-c1ccc3[nH]ccc3c1)CN(C(=O)c1ccc(C(C)(C)C)cc1)C2 [Compound 1.064] |
| 5 to 50 | CCc1cccc(CC)c1-n1nc2c(c1-c1cccc3[nH]cc(C)c13)CN(Cc1ccc(C(F)(F)F)cc1C(F)(F)F)C2(C)C [Compound 1.035] |
| 5 to 50 | CCc1cccc(CC)c1-n1nc2c(c1-c1ccc(F)c3[nH]ccc13)CN(Cc1cc(C(F)(F)F)cc(C(F)(F)F)c1)C2(C)C [Compound 1.001] |
| < 5 | CCc1cccc(CC)c1-n1nc2c(c1-c1ccc(C)c3[nH]ccc13)CN(Cc1ccc(C(F)(F)F)cc1C(F)(F)F)C2(C)C [Compound 1.025] |
| 50 to 500 | CCc1cccc(CC)c1-n1nc2c(c1-c1ccc3[nH]ccc3c1)CN(C(c1ccccc1)C(C)(C)O)C2(C)C (stereo not shown) [Compound 1.049] |
| 5 to 50 | CCc1cccc(CC)c1-n1nc2c(c1-c1cccc3[nH]ccc13)CN(Cc1cc(Cl)ccc1Cl)C2(C)C [Compound 1.042] |
| 5 to 50 | CCc1cccc(CC)c1-n1nc2c(c1-c1c(F)ccc3[nH]ccc13)CN(Cc1ccc(C(F)(F)F)cc1C(F)(F)F)C2(C)C [Compound 1.043] |
| < 5 | CCc1cccc(CC)c1-n1nc2c(c1-c1ccc(CO)c3[nH]ccc13)CN(Cc1ccc(C(F)(F)F)cc1C(F)(F)F)C2(C)C [Compound 1.004] |
| ≥ 500 | Cc1cccc(C)c1-n1nc2c(c1-c1ccc3[nH]ccc3c1)CN(C(=O)CCC1CCCC1)C2 [Compound 1.056] |
| 5 to 50 | CCc1cccc(CC)c1-n1nc2c(c1-c1cc(F)cc3[nH]ccc13)CN(Cc1ccc(C(F)(F)F)cc1C(F)(F)F)C2(C)C [Compound 1.031] |
| 50 to 500 | Cc1cccc(C)c1-n1nc2c(c1-c1ccc3[nH]ccc3c1)CN(C(=O)OC(C)(C)C)C2 [Compound 1.067] |
| ≥ 500 | Cc1cccc(C)c1-n1nc2c(c1-c1ccc3[nH]ccc3c1)CN(C(=O)[C@@H](O)C(C)C)C2 [Compound 1.062] |

| IC50 [nM] | SMILES |
| --- | --- |
| ≥ 500 | Cc1cccc(C)c1-n1nc2c(c1-c1ccc3[nH]ncc3c1)CN(C(=O)OC(C)(C)C)C2 [Compound 1.058] |
| 50 to 500 | Cc1cccc(C)c1-n1nc2c(c1-c1ccc3[nH]ccc3c1)CN(CC(C)(C)C)C2 [Compound 1.053] |
| 5 to 50 | CCOC(=O)C(c1ccccc1)N1Cc2c(nn(-c3c(CC)cccc3CC)c2-c2ccc3[nH]ccc3c2)C1(C)C (stereo not shown) [Compound 1.050] |
| < 5 | CCc1cccc(CC)c1-n1nc2c(c1-c1ccc(F)c3[nH]ccc13)CN(CC(C)(C)C)C2(C)C [Compound 1.032] |
| 5 to 50 | CCc1cccc(CC)c1-n1nc2c(c1-c1ccc(F)c3[nH]cc(Cl)c13)CN(Cc1ccc(Cl)cc1F)C2(C)C [Compound 1.015] |
| < 5 | CCc1cccc(CC)c1-n1nc2c(c1-c1ccc(F)c3[nH]cc(Cl)c13)CN(Cc1ccc(F)cc1F)C2(C)C [Compound 1.017] |
| ≥ 500 | CCc1cccc(CC)c1-n1nc2c(c1-c1ccc(F)c3[nH]ccc13)CN(C(=O)CN)C2(C)C [Compound 1.006] |
| 5 to 50 | CCc1cccc(CC)c1-n1nc2c(c1-c1ccc(F)c3[nH]ccc13)CN(Cc1ccc(C(F)(F)F)cc1C(F)(F)F)C2(C)C [Compound 1.039] |
| ≥ 500 | Cc1cccc(C)c1-n1nc2c(c1-c1ccc3[nH]cnc3c1)CN(CC(C)(C)C)C2 [Compound 1.051] |
| 50 to 500 | Cc1cccc(C)c1-n1nc2c(c1-c1ccc3[nH]ccc3c1)CN(C(=O)C(C)C1CCCCC1)C2 (stereo not shown) [Compound 1.060] |
| ≥ 500 | Cc1cccc(C)c1-n1nc2c(c1-c1ccc3[nH]ccc3c1)CN(C(=O)CC1CCCC1)C2 [Compound 1.057] |
| 5 to 50 | CCc1cccc(CC)c1-n1nc2c(c1-c1ccc(F)c3[nH]cc(Cl)c13)CN(Cc1ccc(C(F)(F)F)cc1C(F)(F)F)C2(C)C [Compound 1.011] |
| 5 to 50 | CCc1cccc(CC)c1-n1nc2c(c1-c1ccc(F)c3[nH]ccc13)CN(Cc1ccc(F)cc1F)C2(C)C [Compound 1.013] |
| ≥ 500 | CCc1cccc(CC)c1-n1nc2c(c1-c1ccc(F)c3[nH]ccc13)CN(C(=O)NC(C)C)C2(C)C [Compound 1.003] |
| 5 to 50 | CCc1cccc(CC)c1-n1nc2c(c1-c1ccc3[nH]ccc3c1)CN(C(=O)OC(C)(C)C)C2(C)C [Compound 1.048] |
| ≥ 500 | Cc1cccc(C)c1-n1nc2c(c1-c1ccc3[nH]ccc3c1)CN(C(=O)NC(C)(C)C)C2 [Compound 1.065] |
| 50 to 500 | CCc1cccc(CC)c1-n1nc2c(c1-c1ccc(F)c3[nH]ccc13)CN(Cc1cccnc1)C2(C)C [Compound 1.016] |
| 5 to 50 | CCc1cccc(CC)c1-n1nc2c(c1-c1ccc(F)c3[nH]ccc13)CN(Cc1cccc(F)c1)C2(C)C [Compound 1.018] |
| 5 to 50 | CCc1cccc(CC)c1-n1nc2c(c1-c1ccc(F)c3[nH]ccc13)CN(Cc1ccccc1C(F)(F)F)C2(C)C [Compound 1.029] |
| ≥ 500 | CCc1cccc(CC)c1-n1nc2c(c1-c1cccc3[nH]ccc13)CN(C(=O)Cn1nc(C(F)(F)F)cc1C)C2(C)C [Compound 1.040] |
| < 5 | CCc1cccc(CC)c1-n1nc2c(c1-c1ccc(F)c3[nH]ccc13)CN(Cc1ccc(F)cc1)C2(C)C [Compound 1.023] |
| < 5 | CCc1cccc(CC)c1-n1nc2c(c1-c1c(F)cc(F)c3[nH]ccc13)CN(Cc1ccc(C(F)(F)F)cc1C(F)(F)F)C2(C)C [Compound 1.037] |
| 5 to 50 | Cc1cccc(C)c1-n1nc2c(c1-c1ccc3[nH]ccc3c1)CN(CC(C)(C)C)C2(C)C [Compound 1.052] |
| < 5 | CCc1cccc(CC)c1-n1nc2c(c1-c1ccc(F)c3[nH]cc(Cl)c13)CN(Cc1ccccc1C(F)(F)F)C2(C)C [Compound 1.026] |
| ≥ 500 | Cc1cccc(C)c1-n1nc2c(c1-c1ccc3[nH]ccc3c1)CN(C(=O)CC(C)(C)C)C2 [Compound 1.061] |
| 50 to 500 | CCc1cccc(CC)c1-n1nc2c(c1-c1ccc(F)c3[nH]ccc13)CN(Cc1ccncc1)C2(C)C [Compound 1.014] |
| ≥ 500 | CCc1cccc(CC)c1-n1nc2c(c1-c1ccc(C(=O)O)c3[nH]ccc13)CN(Cc1ccc(C(F)(F)F)cc1C(F)(F)F)C2(C)C [Compound 1.005] |
